Bounds are passed on as bounds.

For the first assay, the target named is Human LDHA (Homo sapiens (Human), UniProt P00338). The assay is described as follows: human LDHA primary biochemical assay (resazurin/diaphorase coupled, fluorescence). The following applies: LDHA inhibitory activity, activity level based on IC50 (Table 7). The text has this: Test compounds were placed in a Greiner Bio-One (Monroe, N.C.) 1536-well black solid bottom assay plate. 200 millimolar (mM) Tris HCl, pH 7.4, 100 micromolar […] EDTA and 0.01% TWEEN-20™, final concentration, was used as the assay buffer. The LDHA reagent was 2 nanomolar (nM) Human LDHA (Meridian Life Science, Inc., Memphis, Tenn.), final concentration, in assay buffer.
(Alamar Blue is a resazurin reagent that responds to reducing activity.)
As a reminder, the IC50 is the concentration needed to halve the response being measured. Regarding `O=C(O)c1csc(-n2nc(-c3ccc(Cl)cc3)cc2C(F)(F)F)n1` [Compound 427], the IC50 lay in the range of 1000 to 57000 nM.

Turning to `NS(=O)(=O)c1ccc(Cc2cn(-c3nc(C(=O)O)cs3)nc2-c2cccc(OC3CCCC3)c2)cc1` [Compound 460, 2-(3-(3-(cyclopentyloxy)phenyl)-4-(4-sulfamoylbenzyl)-1H-pyrazol-1-yl)thiazole-4-carboxylic acid], the half-maximal inhibitory concentration (IC50) was < 100 nM. On the same count and under the same terms, the value for `Cc1ccc(-c2cc(-c3nn(-c4nc(C(=O)O)cs4)cc3Cc3ccc(S(N)(=O)=O)cc3)ccc2F)cc1` [Compound 476, 2-(3-(6-fluoro-4′-methyl-[1,1′-biphenyl]-3-yl)-4-(4-sulfamoylbenzyl)-1H-pyrazol-1-yl)thiazole-4-carboxylic acid] was < 100 nM; that for `Cc1ccc(-c2nn(-c3nc(C(=O)O)cs3)cc2Cc2ccc(S(N)(=O)=O)cc2)cc1-c1ccc(F)cc1` [Compound 498, 2-(3-(4′-fluoro-6-methyl-[1,1′-biphenyl]-3-yl)-4-(4-sulfamoylbenzyl)-1H-pyrazol-1-yl)thiazole-4-carboxylic acid] was 100 to 1000 nM; that for `CCCC#Cc1cc(-c2nn(-c3nc(C(=O)O)cs3)c(CC3CC3)c2Cc2ccc(S(N)(=O)=O)c(F)c2)ccc1F` [Compound 539, 2-(5-(cyclopropylmethyl)-3-(4-fluoro-3-(pent-1-yn-1-yl)phenyl)-4-(3-fluoro-4-sulfamoylbenzyl)-1H-pyrazol-1-yl)thiazole-4-carboxylic acid] was < 100 nM.

Consider `NS(=O)(=O)c1ccc(Cc2c(-c3cccc(-c4cccc(F)c4)c3)nn(-c3nc(C(=O)O)cs3)c2C2CC2)c(F)c1` [Compound 359], for which the IC50 was < 100 nM. Still for that read-out and setting: the value for `Cc1ccc(-c2nn(-c3nc(C(=O)O)cs3)cc2Cc2ccc(S(N)(=O)=O)cc2)cc1-c1cc(F)cc(F)c1` [Compound 489, 2-(3-(3′,5′-difluoro-6-methyl-[1,1′-biphenyl]-3-yl)-4-(4-sulfamoylbenzyl)-1H-pyrazol-1-yl)thiazole-4-carboxylic acid] was 100 to 1000 nM; that for `NS(=O)(=O)c1ccc(Cc2c(-c3cccc(-c4ccc(F)cc4)c3)nn(-c3nc(C(=O)O)cs3)c2C2CC2)c(F)c1` [Compound 357] was < 100 nM; that for `Cc1ccc(-c2nn(-c3nc(C(=O)O)cs3)cc2Cc2ccc(S(N)(=O)=O)cc2)cc1-c1cccc(F)c1` [Compound 497, 2-(3-(3′-fluoro-6-methyl-[1,1′-biphenyl]-3-yl)-4-(4-sulfamoylbenzyl)-1H-pyrazol-1-yl)thiazole-4-carboxylic acid] was 100 to 1000 nM. In the case of `Cc1ccc(-c2cccc(-c3nn(-c4nc(C(=O)O)cs4)c(C4CC4)c3Cc3ccc(S(N)(=O)=O)c(F)c3)c2)cc1` [Compound 347], the IC50 is < 100 nM.

For the compound `C/C=C/c1cc(-c2nn(-c3nc(C(=O)O)cs3)c(CC3CC3)c2Cc2ccc(S(N)(=O)=O)c(F)c2)ccc1F` [Compound 533, (E)-2-(5-(cyclopropylmethyl)-3-(4-fluoro-3-(prop-1-en-1-yl)phenyl)-4-(3-fluoro-4-sulfamoylbenzyl)-1H-pyrazol-1-yl)thiazole-4-carboxylic acid], the IC50 was < 100 nM.

Consider `NS(=O)(=O)c1ccc(Cc2cnn(-c3nc(C(=O)O)cs3)c2-c2cccnc2)cc1` [Compound 475, 2-(5-(pyridin-3-yl)-4-(4-sulfamoylbenzyl)-1H-pyrazol-1-yl)thiazole-4-carboxylic acid], for which the IC50 lay within 100 to 1000 nM. Still for that read-out and setting: for `NS(=O)(=O)c1ccc(Cc2c(-c3ccc(F)c(-c4ccc(F)cc4)c3)nn(-c3nc(C(=O)O)cs3)c2C2CC2)cc1` [Compound 482, 2-(5-cyclopropyl-3-(4′,6-difluoro-[1,1′-biphenyl]-3-yl)-4-(4-sulfamoylbenzyl)-1H-pyrazol-1-yl)thiazole-4-carboxylic acid] the value was < 100 nM.

The assay is the same for the next values; noted with them: LDHA inhibitory activity, assay of Example 1; activity level classes.
For `C=Cc1c(Cc2ccc(S(N)(=O)=O)cc2)c(-c2ccccc2)nn1-c1nc(C(=O)O)cs1` [Compound 167, 2-(3-phenyl-4-(4-sulfamoylbenzyl)-5-vinyl-1H-pyrazol-1-yl)thiazole-4-carboxylic acid], the concentration for half-maximal inhibition (IC50) is < 100 nM. The same measure, in the same setting: for `O=C(O)c1csc(-n2nc(-c3ccc(F)c(F)c3)c3cccc(O)c32)n1` [Compound 119, 2-(3-(3,4-difluorophenyl)-7-hydroxy-1H-indazol-1-yl)thiazole-4-carboxylic acid] the value was > 57000 nM; for `CS(=O)(=O)NCCc1cc(-c2cc(O)n(-c3nc(C(=O)O)cs3)n2)ccc1F` [Compound 122, 2-(3-(4-fluoro-3-(2-(methylsulfonamido)ethyl)phenyl)-5-hydroxy-1H-pyrazol-1-yl)thiazole-4-carboxylic acid], > 57000 nM. As for `CC(C)C(=O)OCOC(=O)c1csc(-n2nc(-c3ccc(F)c(F)c3)cc2O)n1` [Compound 109, (isobutyryloxy)methyl 2-(3-(3,4-difluorophenyl)-5-hydroxy-1H-pyrazol-1-yl)thiazole-4-carboxylate], the half-inhibitory concentration (IC50) is > 57000 nM. On the same count and under the same terms, the value for `COC(=O)c1csc2c1c(=O)[nH]c1cc(-c3ccc(F)c(F)c3)nn12` [Compound 115, methyl 2-(3,4-difluorophenyl)-5-oxo-4,5-dihydropyrazolo[1,5-a]thieno[3,2-e]pyrimidine-6-carboxylate] was > 57000 nM; that for `NS(=O)(=O)c1ccc(Cc2c(-c3cccc(-c4ccccc4)c3)nn(-c3nc(C(=O)O)cs3)c2C2(C(F)(F)F)CC2)cc1` [Compound 299] was 1000 to 57000 nM. Consider `O=C(O)c1csc(-n2cc(-c3ccc(F)c(F)c3)c3cccc(O)c32)n1` [Compound 125, 2-(3-(3,4-difluorophenyl)-7-hydroxy-1H-indol-1-yl)thiazole-4-carboxylic acid], for which the half-maximal inhibitory concentration (IC50) is > 57000 nM. The same measure, in the same setting: the value for `NS(=O)(=O)c1ccc(Cc2c(-c3cccc(-c4ccccc4)c3)nn(-c3nc(C(=O)O)cs3)c2C2CC2(F)F)cc1` (stereo not shown) [Compound 205, 2-(3-([1,1′-biphenyl]-difluorocyclopropyl)-4-(4-sulfamoylbenzyl)-1H-pyrazol-1-yl)thiazole-4-carboxylic acid] was < 100 nM; that for `O=C(O)c1csc2c1c(=O)[nH]c1cc(-c3ccc(F)c(F)c3)nn12` [Compound 116, 2-(3,4-difluorophenyl)-5-oxo-4,5-dihydropyrazolo[1,5-a]thieno[3,2-e]pyrimidine-6-carboxylic acid] was > 57000 nM.

The same assay, now with this note: read-out: Inhibitory activity IC50.
With `NS(=O)(=O)c1ccc(Cc2cn(-c3nc(C(=O)O)cs3)c3ccc(C(=O)N4CCOCC4)cc23)cc1` [Compound 30, 2-(5-(morpholine-4-carbonyl)-3-(4-sulfamoylbenzyl)-1H-indol-1-yl)thiazole-4-carboxylic acid], the IC50 was 1000 to 57000 nM.

Regarding `NS(=O)(=O)c1ccc(Cc2c(CC3CC3(F)F)nn(-c3nc(C(=O)O)cs3)c2-c2cccc(-c3ccccc3)c2)cc1` (stereo not shown) [Compound 208, 2-(5-([1,1′-biphenyl]-3-yl)-5-((2,2-difluorocyclopropyl)methyl)-4-(4-sulfamoylbenzyl)-1H-pyrazol-1-yl)thiazole-4-carboxylic acid], the concentration for half-maximal inhibition (IC50) lay within 1000 to 57000 nM. Turning to `Nc1c(Cc2ccc(S(N)(=O)=O)cc2)c(-c2ccccc2)nn1-c1cccc(C(=O)O)n1` [Compound 144, 6-(5-amino-3-phenyl-4-(4-sulfamoylbenzyl)-1H-pyrazol-1-yl)picolinic acid], the 50% inhibitory concentration (IC50) lay in the range of 1000 to 57000 nM. Still for that read-out and setting: for `N[S+](=O)([O-])c1ccc(Cc2c(CC3CC3)nn(-c3nc(C(=O)O)cs3)c2-c2cccc(-c3ccccc3)c2)c(F)c1` [Compound 289] the value was 1000 to 57000 nM. The same measure, in the same setting: for `Cc1sc(-n2nc(-c3ccccc3)c(Cc3ccc(S(N)(=O)=O)cc3)c2N)nc1C(=O)O` [Compound 57, 2-(5-amino-3-phenyl-4-(4-sulfamoylbenzyl)-1H-pyrazol-1-yl)-5-methylthiazole-4-carboxylic acid] the value was 100 to 1000 nM; for `N[S+](=O)([O-])c1ccc(Cc2c(CC3CC3)nn(-c3nc(C(=O)O)cs3)c2-c2ccc(F)c(-c3ccc(C4CC4)cc3)c2)cc1` [Compound 293], 1000 to 57000 nM; for `CC(C)c1c(Cc2ccc(S(N)(=O)=O)cc2)c(-c2ccccc2)nn1-c1nc(C(=O)O)cs1` [Compound 159, 2-(5-isopropyl-3-phenyl-4-(4-sulfamoylbenzyl)-1H-pyrazol-1-yl)thiazole-4-carboxylic acid], 100 to 1000 nM. The same measure, in the same setting: the value for `Cc1ccc(-c2cc(-c3c(Cc4ccc([S+](N)(=O)[O-])cc4)c(CC4CC4)nn3-c3nc(C(=O)O)cs3)ccc2F)cc1` [Compound 283] was 1000 to 57000 nM; that for `COc1cccc(-c2cc(-c3c(Cc4ccc([S+](N)(=O)[O-])c(F)c4)c(CC4CC4)nn3-c3nc(C(=O)O)cs3)ccc2F)c1` [Compound 329] was 1000 to 57000 nM. Turning to `NS(=O)(=O)c1ccc(Cc2cn(-c3nc(C(=O)O)cs3)c3ccccc23)cc1` [Compound 196, 2-(3-(4-sulfamoylbenzyl)-1H-indol-1-yl)thiazole-4-carboxylic acid], the half-maximal inhibitory concentration (IC50) fell in the range of 100 to 1000 nM. As for `N[S+](=O)([O-])c1ccc(Cc2c(CC3CC3)nn(-c3nc(C(=O)O)cs3)c2-c2ccc(F)c(-c3ccc(F)cc3)c2)c(F)c1` [Compound 308], the IC50 lay in the range of 1000 to 57000 nM. Still for that read-out and setting: the value for `NS(=O)(=O)c1ccc(Cc2c(-c3ccccc3)nn(-c3nc(C(=O)O)cs3)c2C2CCCCC2)cc1` [Compound 177, 2-(5-cyclohexyl-3-phenyl-4-(4-sulfamoylbenzyl)-1H-pyrazol-1-yl)thiazole-4-carboxylic acid] was 1000 to 57000 nM; that for `O=C(O)c1csc(-n2nc(-c3ccc(F)cc3F)cc2O)n1` [Compound 97, 2-(3-(2,4-difluorophenyl)-5-hydroxy-1H-pyrazol-1-yl)thiazole-4-carboxylic acid] was > 57000 nM; that for `O=C(O)c1csc(-n2cc(Br)c(-c3cccc(-c4ccccc4)c3)n2)n1` [Compound 21, 2-(3-([1,1′-biphenyl]-3-yl)-4-bromo-1H-pyrazol-1-yl)thiazole-4-carboxylic acid] was 1000 to 57000 nM. On the same count and under the same terms, the value for `CC(C)c1ccc(-c2cc(-c3c(Cc4ccc([S+](N)(=O)[O-])cc4)c(CC4CC4)nn3-c3nc(C(=O)O)cs3)ccc2F)cc1` [Compound 305] was 1000 to 57000 nM.

(Values after patent US10961200B2, “Small molecule inhibitors of lactate dehydrogenase and methods of use thereof” (THE UNITED STATES OF AMERICA, AS REPRESENTED BY THE …, priority 2014, dated 2021).)
